The target of experiment [1] is T1, Dihydroorotate dehydrogenase (fumarate) (Leishmania major, UniProt Q4QEW7).
T1 sequence (Q4QEW7 whole entry): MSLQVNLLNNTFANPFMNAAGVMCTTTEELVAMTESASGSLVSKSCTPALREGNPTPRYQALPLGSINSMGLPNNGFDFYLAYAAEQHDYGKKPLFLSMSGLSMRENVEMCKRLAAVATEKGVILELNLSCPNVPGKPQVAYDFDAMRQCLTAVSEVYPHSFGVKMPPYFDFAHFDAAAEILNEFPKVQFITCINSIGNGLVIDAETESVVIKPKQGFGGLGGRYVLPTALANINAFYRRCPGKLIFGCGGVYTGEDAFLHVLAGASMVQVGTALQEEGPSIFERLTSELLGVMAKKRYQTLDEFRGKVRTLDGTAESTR
Briefly: Inhibition of recombinant oligo-histidine-tagged Leishmania major DHODH expressed in Escherichia coli BL21(DE3) cells using DHO as substrate measured after 60 secs.

The subject of experiment [2] is Trypanosoma cruzi. Briefly: Antitrypanosomal activity against Trypanosoma cruzi Tulahuen C2C4 trypomastigotes infected in rat skeletal myoblasts L-6 cells after 96 hrs by CPRG/Nonidet reagent based spectrophotometric method. The experiment is classed as functional, organism-based. Conditions: Tulahuen C2C4, L6, 96 h.
In experiment [3] the test system is Trypanosoma brucei rhodesiense. Kind of experiment: Antitrypanosomal activity against Trypanosoma brucei rhodesiense STIB 900 trypomastigotes after 72 hrs by Alamar Blue assay. The experiment is classed as functional, organism-based. Conditions: STIB 900, 72 h. Background: The colour change of resazurin is a common sign of viable cells or microbes.
For experiment [4], the system named is Leishmania donovani. Kind of experiment: Antileishmanial activity against Leishmania donovani MHOM/ET/67/L82 amastigotes after 72 hrs by Alamar Blue assay. Conditions: MHOM/ET/67/L82, 72 h. The experiment is classed as functional, organism-based.
Experiment [5] concerns the target T2, Dihydroorotate dehydrogenase (fumarate) (Leishmania major) (UniProt Q4QEW7).
T2 sequence (whole entry): T1 sequence (Q4QEW7 whole entry)
Briefly: Inhibition of recombinant oligo-histidine-tagged Leishmania major DHODH expressed in Escherichia coli BL21(DE3) cells at 100 uM using DHO as substrate measured after 60 secs.

Experiment [6] addresses Dihydroorotate dehydrogenase (quinone), mitochondrial (Homo sapiens) (UniProt Q02127). Kind of experiment: Inhibition of human DHODH at 100 uM.
Experiment [7] addresses T2, Dihydroorotate dehydrogenase (fumarate) (Leishmania major). Kind of experiment: Binding affinity to Leishmania major DHODH assessed as change in melting temperature at 100 uM by SYPRO orange dye-based differential scanning fluorimetry. On the technique in general: DSF heats the sample and reads unfolding from a dye or from intrinsic fluorescence.
For experiment [8] the target is unchanged. Briefly: Binding affinity to Leishmania major DHODH assessed as change in melting temperature at 1000 uM by differential scanning fluorimetry-based ThermoFMN assay.
Experiment [9] shares this target. Kind of experiment: Binding affinity to Leishmania major DHODH assessed as change in melting temperature at 100 uM by differential scanning fluorimetry-based ThermoFMN assay.
For experiment [10] the target is unchanged. Kind of experiment: Binding affinity to Leishmania major DHODH assessed as change in melting temperature at 500 uM by differential scanning fluorimetry-based ThermoFMN assay.
Experiment [11] has the same target. Kind of experiment: Binding affinity to Leishmania major DHODH assessed as change in melting temperature at 1000 uM by SYPRO orange dye-based differential scanning fluorimetry.
Experiment [12] has the same target. Briefly: Binding affinity to Leishmania major DHODH assessed as change in melting temperature at 500 uM by SYPRO orange dye-based differential scanning fluorimetry.
Experiment [13] relates to Leishmania amazonensis. Briefly: Antileishmanial activity against Leishmania amazonensis MHOM/77BR/LTB0016 amastigotes infected in mouse peritoneal macrophages after 48 hrs by Giemsa staining-based assay. Conditions: MHOM/77BR/LTB0016, 48 h. The experiment is classed as functional, organism-based.
The subject of experiment [14] is Trypanosoma cruzi. Briefly: Antitrypanosomal activity against Trypanosoma cruzi trypomastigotes. The class given is functional, organism-based.

Chain of Dihydroorotate dehydrogenase (quinone), mitochondrial (Homo sapiens) (Q02127 whole entry): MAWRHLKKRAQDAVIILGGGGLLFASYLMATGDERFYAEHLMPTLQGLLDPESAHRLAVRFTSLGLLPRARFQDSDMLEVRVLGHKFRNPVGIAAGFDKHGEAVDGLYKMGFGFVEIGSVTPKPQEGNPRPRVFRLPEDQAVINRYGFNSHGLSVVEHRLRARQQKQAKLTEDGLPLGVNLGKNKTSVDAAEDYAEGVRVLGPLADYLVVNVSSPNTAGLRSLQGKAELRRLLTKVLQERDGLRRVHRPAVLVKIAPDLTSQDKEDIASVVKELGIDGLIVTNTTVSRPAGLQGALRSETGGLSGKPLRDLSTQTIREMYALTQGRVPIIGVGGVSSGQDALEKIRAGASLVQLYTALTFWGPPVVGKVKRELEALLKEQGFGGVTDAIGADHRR

For `O=C(/C=C/c1ccc(O)c(O)c1)O[C@@H]1[C@H](O)C[C@@](O)(C(=O)O)C[C@H]1OC(=O)/C=C/c1ccc(O)c(O)c1`, the IC50 in [1] (read-out: IC50) worked out at 642 µM.
For `O=c1c(O)c(-c2cc(O)c(O)c(O)c2)oc2cc(O)cc(O)c12` [MYRICETIN], the IC50 in experiment [2] was 94.3 µM; in experiment [3], 50 µM; in experiment [4], 4.08 µM. For the same molecule, the figures for the inhibition in [5] and in experiment [6] were 67% and 41%, respectively.
For the molecule `O=c1ccc2ccc(O)cc2o1` [UMBELLIFERONE], the IC50 in experiment [2] came to 555 µM; in [3], 319 µM; in experiment [4], 172 µM; in experiment [1] (read-out: IC50) it was 467 µM.
For `COc1ccc(-c2oc3cc(O)cc(O)c3c(=O)c2O)cc1O` [TAMARIXETIN], the IC50 in experiment [2] stood at 20.2 µM; in [3], 46.8 µM; in [4], 53.1 µM; in experiment [1] (read-out: IC50), 93.7 µM. For the same molecule, the inhibition – broadly, the drop in the measured response relative to a control, in per cent – in experiment [5] was found to be 46%; in experiment [6], 29%.
Consider `O=c1c(O)c(-c2ccccc2)oc2cc(O)cc(O)c12` [GALANGIN], for which the IC50 is 73.3 µM in [2], 61.1 µM in experiment [3], 5.55 µM in experiment [4] and 481 µM in experiment [1] (read-out: IC50).
Consider `C=C1C(=O)O[C@@H]2[C@H]3C(C)=CC(=O)C3=C(C)C[C@@H](OC(=O)[C@]3(C)O[C@@H]3C)[C@@H]12`, for which, in [1] (read-out: IC50), the IC50 was found to be 585 µM. Moreover, the ΔTm (as a rule, the change in melting temperature against a reference sample) in experiment [7] was -0.38 °C; in [8], -0.85 °C; in experiment [9], -0.26 °C; in experiment [10], -0.64 °C; in experiment [11] it was -1.01 °C; in experiment [12] it was -0.75 °C.
As for `O=C(O)/C=C/c1ccccc1O` [O-COUMARIC ACID], the IC50 in [2] is 183 µM; in [3], 265 µM; in experiment [4] it was 36.6 µM; in experiment [1] (read-out: IC50) it was 806 µM; in experiment [13], 13.8 µM.
With `C=C(C)C(=O)O[C@@H]1C[C@](C)(O)[C@@H]2C(=O)C=C(C)[C@@H]2[C@H]2OC(=O)C(=C)[C@@H]21`, in experiment [1] (read-out: IC50), the IC50 was 662 µM.
In the case of `C=C1C(=O)O[C@@H]2/C=C(/C)C3=CC(=O)[C@@](C)(C[C@@H](OC(=O)/C(C)=C/C)[C@@H]12)O3` [ATRIPLICIOLIDTIGLATE], the IC50 in experiment [1] (read-out: IC50) is 872 µM. Besides, the shift in melting temperature (ΔTm) in experiment [7] was -0.47 °C; in experiment [8] it was -1.21 °C; in experiment [9], -0.35 °C; in experiment [10], -0.85 °C; in experiment [11], -5.97 °C; in experiment [12], -2.52 °C.
In the case of `O=c1cc(-c2ccc(O)cc2)oc2cc(O[C@@H]3O[C@H](CO)[C@@H](O)[C@H](O)[C@H]3O)cc(O)c12` [APIGETRIN], the IC50 in experiment [2] was 69.4 µM; in experiment [3], 52.5 µM; in experiment [4] it was 4.86 µM; in experiment [1] (read-out: IC50), 105 µM. The inhibition came to 47% in experiment [5] and 10% in experiment [6].
Consider `O=C(/C=C/c1ccc(O)c(O)c1)O[C@@H]1CC(O)(C(=O)O)C[C@@H](OC(=O)/C=C/c2ccc(O)c(O)c2)C1O` (stereo partly specified), for which, in experiment [1] (read-out: IC50), the IC50 is 1280 µM.
Consider `O=C(O)c1cc(=O)[nH]c(=O)[nH]1`, for which the thermal shift (ΔTm) in experiment [7] is 0.39 °C; in experiment [8], 6.12 °C; in experiment [9] it was 1.29 °C; in [10], 4.32 °C; in experiment [11] it was 1.62 °C; in [12] it was 1.43 °C.
Turning to `CC[C@@H](C)[C@@]1(O)O[C@H]2C[C@@]3(C)OC(=CC3=O)/C(CO)=C\[C@H]3OC(=O)[C@@]1(C)[C@H]23`, the IC50 was 985 µM in [1] (read-out: IC50) and 794 µM in experiment [1] (read-out: pIC50 (converted)). Further, the ΔTm is -0.13 °C in experiment [7]; -0.61 °C in [8]; -0.15 °C in [9]; -0.32 °C in experiment [10]; -1.83 °C in experiment [11]; -0.96 °C in [12].
`C=C(C)C(=O)O[C@H]1C[C@@]2(C)OC(=CC2=O)/C(C)=C\[C@H]2OC(=O)C(=C)[C@H]12`: the IC50 is 514 µM in [14] and 278 µM in experiment [1] (read-out: IC50).
As for `COc1ccc(-c2oc3cc(O)c(OC)c(O)c3c(=O)c2OC)cc1` [SANTIN], the IC50 in experiment [1] (read-out: IC50) was 262 µM.
On to `C=C(C)C(=O)O[C@H]1C[C@@]2(C)OC(=CC2=O)[C@@H](C)C[C@H]2OC(=O)C(=C)[C@H]12`, for which, in experiment [1] (read-out: IC50), the IC50 is 145 µM. Moreover, the shift in melting temperature (ΔTm) in experiment [7] was -0.18 °C; in experiment [8], -0.27 °C; in experiment [9], -0.27 °C; in [10], -0.22 °C; in experiment [11], -0.45 °C; in experiment [12], -0.27 °C.
`O=c1c(O)c(-c2ccc(O)cc2)oc2cc(O)cc(O)c12` [KAEMPFEROL]: the IC50 in experiment [2] was determined as 83.5 µM; in experiment [3] it was 32.2 µM; in [4], 10.1 µM; in experiment [1] (read-out: IC50), 389 µM.
For `C=C1C(=O)O[C@@H]2/C=C(\C)CC/C=C(/C=O)[C@@H](O)[C@@H](OC(=O)/C(C)=C\C)[C@@H]12`, the IC50 in experiment [1] (read-out: IC50) came out at 644 µM. Besides, the shift in melting temperature (ΔTm) in [7] is -0.09 °C; in experiment [8], -1.48 °C; in experiment [9], -0.48 °C; in [10], -1.07 °C; in experiment [11], -0.07 °C; in experiment [12], -0.17 °C.
With `O=C(/C=C/c1ccc(O)c(O)c1)O[C@@H]1C[C@@](O)(C(=O)O)C[C@@H](O)[C@@H]1O`, the IC50 in experiment [1] (read-out: IC50) stood at 1130 µM.
Take `C=C(C)C(=O)O[C@@H]1C[C@@](C)(O)[C@@H]2C(=O)C=C(C)[C@@H]2[C@H]2OC(=O)C(=C)[C@@H]21`: in [1] (read-out: IC50), the IC50 stood at 168 µM.
In the case of `C=C1C(=O)O[C@@H]2/C=C(/CO)C3=CC(=O)[C@@](C)(C[C@@H](OC(=O)/C(C)=C/C)[C@@H]12)O3` [BUDLEIN A], the IC50 in [1] (read-out: IC50) is 263 µM.
In the case of `CC[C@@H](C)[C@@]1(O)O[C@H]2C[C@@]3(C)OC(=CC3=O)/C(COC(C)=O)=C\[C@H]3OC(=O)[C@@]1(C)[C@H]23`, the IC50 in experiment [1] (read-out: IC50) was found to be 1200 µM. Also, the ΔTm in experiment [7] is -0.86 °C; in [8], -0.76 °C; in [9] it was -0.41 °C; in [10] it was -0.65 °C; in experiment [11], -1.39 °C; in experiment [12] it was -1.8 °C.
`COc1ccc(/C=C/C(=O)NC2CCCN2C(=N)N)cc1O` (stereo unspecified): the IC50 in experiment [1] (read-out: IC50) is 610 µM.
In the case of `C[C@@H]1O[C@@H](OC[C@H]2O[C@@H](Oc3c(-c4ccc(O)c(O)c4)oc4cc(O)cc(O)c4c3=O)[C@H](O)[C@@H](O)[C@@H]2O)[C@H](O)[C@H](O)[C@H]1O` [RUTIN], the IC50 in experiment [2] is 49.1 µM; in experiment [3], 6.9 µM; in [4], 49.1 µM; in experiment [1] (read-out: IC50) it was 1530 µM; in [13] it was 4.4 µM.
With `C/C=C(/C)[C@@]1(O)O[C@H]2C[C@@]3(C)OC(=CC3=O)/C(C)=C\[C@H]3OC(=O)[C@@]1(C)[C@H]23`, in [1] (read-out: IC50), the IC50 stood at 346 µM.
Take `O=c1c(O)c(-c2ccc(O[C@@H]3O[C@H](CO)[C@@H](O)[C@H](O)[C@H]3O)c(O)c2)oc2cc(O)cc(O)c12` [SPIRAEOSIDE]: the inhibition in experiment [5] was found to be 35%; in experiment [6], 16%. For the same molecule, in experiment [1] (read-out: IC50), the IC50 was 163 µM.
Regarding `O=C(O)c1ccc(O)c(O)c1` [PROTOCATECHUIC ACID], the IC50 came to 112 µM in [3] and 922 µM in [1] (read-out: IC50).
With `C=C1CC[C@H]2[C@@](C)(CCC[C@@]2(C)C(=O)O)[C@@H]1CCc1ccoc1`, the IC50 in [1] (read-out: IC50) amounted to 2620 µM.
In the case of `C=C1[C@@H]2CC[C@H]3[C@]4(C)CCC[C@@](C)(C(=O)O)[C@H]4CC[C@]3(C2)[C@H]1OC(=O)/C=C/c1ccccc1`, the IC50 in [1] (read-out: IC50) is 1420 µM.

For the origin of these results see ChEMBL document CHEMBL4261582, “Natural products as inhibitors of Leishmania major dihydroorotate dehydrogenase” (Eur J Med Chem, 2018).
